Experimental data from ChEMBL document CHEMBL3763135, “Synthesis and evaluation of thiophene-based guanylhydrazones (iminoguanidines) efficient against panel of voriconazole-resistant fungal isolates” (Bioorg Med Chem, 2016).
≈ marks a conversion by molar mass, not a printed value. Calls of active or inactive are those of the source. No cut-off for these calls is given here.

Assays:
Pichia kudriavzevii [1] = assay: Antibiofilm activity against Pichia kudriavzevii ATCC 34135 assessed as disruption of preformed biofilm after 24 hrs by concanavalin A-FITC-staining based fluorescence microscopic analysis; type: functional
Microsporum canis = assay: Antifungal activity against Microsporum canis DMT2 by broth dilution method; type: functional
Danio rerio [2] = organism: Danio rerio; assay: Toxicity against zebrafish embryo assessed as normal embryos at 10 ug/ml measured at 96 hrs post fertilization by inverted microscopic analysis; type: organism-based; settings: in vivo
Danio rerio [3] = organism: Danio rerio; assay: Toxicity against zebrafish embryo assessed as normal embryos at 50 ug/ml measured at 96 hrs post fertilization by inverted microscopic analysis; type: organism-based; settings: in vivo
[4] = Toxicity against zebrafish embryo assessed as dead embryos at 50 ug/ml measured at 96 hrs post fertilization by inverted microscopic analysis; type: organism-based, Danio rerio; settings: read-out: Activity
Aspergillus fumigatus = assay: Antifungal activity against Aspergillus fumigatus ATCC 13073 by broth dilution method; type: functional
Candida parapsilosis [5] = assay: Antibiofilm activity against Candida parapsilosis C27 assessed as disruption of preformed biofilm after 24 hrs by concanavalin A-FITC-staining based fluorescence microscopic analysis; type: functional
Pichia kudriavzevii [6] = assay: Antifungal activity against Candida krusei ATCC 34135 by broth dilution method; type: functional
Candida albicans [7] = assay: Antibiofilm activity against Candida albicans assessed as inhibition of Spider medium-induced hyphae formation at sub-MIC after 24 hrs by propidium iodide and FITC-conjugated concanavaline A staining based fluorescence microscopy; type: functional, organism-based
Candida albicans [8] = assay: Antifungal activity against Candida albicans CA5 assessed as fungal growth at sub-MIC measured over 12 hrs by time-kill dependence-based spectrophotometric analysis relative to DMSO control; type: functional
Danio rerio [9] = organism: Danio rerio; assay: Toxicity against zebrafish embryo assessed as skeletal deformities at 5 ug/ml measured at 96 hrs post fertilization by inverted microscopic analysis; type: organism-based; settings: in vivo
Candida albicans [10] = assay: Antifungal activity against Candida albicans ATCC 10231 by broth dilution method; type: functional
Danio rerio [11] = organism: Danio rerio; assay: Toxicity against zebrafish embryo assessed as effect on notochord at 2.5 ug/ml measured at 96 hrs post fertilization by inverted microscopic analysis; type: organism-based; settings: in vivo
Candida albicans [12] = assay: Antifungal activity against Candida albicans CA5 assessed as fungal growth at sub-MIC measured after 24 hrs by time-kill dependence-based spectrophotometric analysis relative to DMSO control; type: functional, organism-based
Fusarium oxysporum = assay: Antifungal activity against Fusarium oxysporum AB18 by broth dilution method; type: functional
Danio rerio [13] = organism: Danio rerio; assay: Toxicity against zebrafish embryo assessed as effect on blood circulation at 5 ug/ml measured at 96 hrs post fertilization by inverted microscopic analysis; type: organism-based; settings: in vivo
Danio rerio [14] = organism: Danio rerio; assay: Toxicity against zebrafish embryo assessed as effect on otoliths at 5 ug/ml measured at 96 hrs post fertilization by inverted microscopic analysis; type: organism-based; settings: in vivo
[15] = Toxicity against zebrafish embryo assessed as dead embryos at 25 ug/ml measured at 96 hrs post fertilization by inverted microscopic analysis; type: organism-based, Danio rerio; settings: read-out: Activity
Danio rerio [16] = organism: Danio rerio; assay: Toxicity against zebrafish embryo assessed as effect on heart beat at 5 ug/ml measured at 96 hrs post fertilization by inverted microscopic analysis; type: organism-based; settings: in vivo
Danio rerio [17] = organism: Danio rerio; assay: Toxicity against zebrafish embryo assessed as effect on eyes at 5 ug/ml measured at 96 hrs post fertilization by inverted microscopic analysis; type: organism-based; settings: in vivo
Danio rerio [18] = organism: Danio rerio; assay: Toxicity against zebrafish embryo assessed as unhatched embryos at 2.5 ug/ml measured at 96 hrs post fertilization by inverted microscopic analysis; type: organism-based; settings: in vivo
Danio rerio [19] = assay: Toxicity against zebrafish embryo assessed as pericardial edema at 2.5 ug/ml measured at 96 hrs post fertilization by inverted microscopic analysis; type: organism-based; settings: in vivo
Danio rerio [20] = organism: Danio rerio; assay: Toxicity against zebrafish embryo assessed as growth retardation at 2.5 ug/ml measured at 96 hrs post fertilization by inverted microscopic analysis; type: organism-based; settings: in vivo
Danio rerio [21] = assay: Toxicity against zebrafish embryo assessed as yolk edema at 5 ug/ml measured at 96 hrs post fertilization by inverted microscopic analysis; type: organism-based; settings: in vivo
Danio rerio [22] = organism: Danio rerio; assay: Toxicity against zebrafish embryo assessed as effect on heart beat at 2.5 ug/ml measured at 96 hrs post fertilization by inverted microscopic analysis; type: organism-based; settings: in vivo
[23] = Toxicity against zebrafish embryo measured at 96 hrs post fertilization by inverted microscopic analysis; type: organism-based, Danio rerio; settings: zebrafish embryos
Danio rerio [24] = organism: Danio rerio; assay: Toxicity against zebrafish embryo assessed as teratogenic embryos at 5 ug/ml measured at 96 hrs post fertilization by inverted microscopic analysis; type: organism-based; settings: in vivo
Danio rerio [25] = organism: Danio rerio; assay: Toxicity against zebrafish embryo assessed as head malformation at 5 ug/ml measured at 96 hrs post fertilization by inverted microscopic analysis; type: organism-based; settings: in vivo
[26] = Induction of membrane damage in PC/PS liposome assessed as calcein release at MIC after 30 mins by fluorescence-based liposome leakage assay; type: functional
Danio rerio [27] = organism: Danio rerio; assay: Toxicity against zebrafish embryo assessed as head malformation at 2.5 ug/ml measured at 96 hrs post fertilization by inverted microscopic analysis; type: organism-based; settings: in vivo
Danio rerio [28] = organism: Danio rerio; assay: Toxicity against zebrafish embryo assessed as unhatched embryos at 5 ug/ml measured at 96 hrs post fertilization by inverted microscopic analysis; type: organism-based; settings: in vivo
Danio rerio [29] = organism: Danio rerio; assay: Toxicity against zebrafish embryo assessed as teratogenic embryos at 2.5 ug/ml measured at 96 hrs post fertilization by inverted microscopic analysis; type: organism-based; settings: in vivo
Danio rerio [30] = organism: Danio rerio; assay: Toxicity against zebrafish embryo assessed as normal embryos at 2.5 ug/ml measured at 96 hrs post fertilization by inverted microscopic analysis; type: organism-based; settings: in vivo
Danio rerio [31] = organism: Danio rerio; assay: Toxicity against zebrafish embryo assessed as effect on eyes at 2.5 ug/ml measured at 96 hrs post fertilization by inverted microscopic analysis; type: organism-based; settings: in vivo
Danio rerio [32] = organism: Danio rerio; assay: Toxicity against zebrafish embryo assessed as normal embryos at 5 ug/ml measured at 96 hrs post fertilization by inverted microscopic analysis; type: organism-based; settings: in vivo
[33] = Toxicity against zebrafish embryo assessed as dead embryos at 5 ug/ml measured at 96 hrs post fertilization by inverted microscopic analysis; type: organism-based, Danio rerio; settings: read-out: Activity
Danio rerio [34] = organism: Danio rerio; assay: Toxicity against zebrafish embryo assessed as effect on tail tip at 5 ug/ml measured at 96 hrs post fertilization by inverted microscopic analysis; type: organism-based; settings: in vivo
Danio rerio [35] = organism: Danio rerio; assay: Toxicity against zebrafish embryo assessed as effect on tail tip at 2.5 ug/ml measured at 96 hrs post fertilization by inverted microscopic analysis; type: organism-based; settings: in vivo
Candida parapsilosis [36] = assay: Antifungal activity against Candida parapsilosis C27 by broth dilution method; type: functional
Candida albicans [37] = assay: Antibiofilm activity against Candida albicans ATCC 10231 assessed as disruption of preformed biofilm after 24 hrs by concanavalin A-FITC-staining based fluorescence microscopic analysis; type: functional
Danio rerio [38] = assay: Toxicity against zebrafish embryo assessed as yolk edema at 2.5 ug/ml measured at 96 hrs post fertilization by inverted microscopic analysis; type: organism-based; settings: in vivo
Danio rerio [39] = organism: Danio rerio; assay: Toxicity against zebrafish embryo assessed as growth retardation at 5 ug/ml measured at 96 hrs post fertilization by inverted microscopic analysis; type: organism-based; settings: in vivo
Danio rerio [40] = organism: Danio rerio; assay: Toxicity against zebrafish embryo assessed as effect on otoliths at 2.5 ug/ml measured at 96 hrs post fertilization by inverted microscopic analysis; type: organism-based; settings: in vivo
Danio rerio [41] = organism: Danio rerio; assay: Toxicity against zebrafish embryo assessed as normal embryos at 25 ug/ml measured at 96 hrs post fertilization by inverted microscopic analysis; type: organism-based; settings: in vivo
Danio rerio [42] = organism: Danio rerio; assay: Toxicity against zebrafish embryo assessed as teratogenic embryos at 25 ug/ml measured at 96 hrs post fertilization by inverted microscopic analysis; type: organism-based; settings: in vivo
Danio rerio [43] = assay: Toxicity against zebrafish embryo assessed as pericardial edema at 5 ug/ml measured at 96 hrs post fertilization by inverted microscopic analysis; type: organism-based; settings: in vivo
[44] = Toxicity against zebrafish embryo assessed as dead embryos at 2.5 ug/ml measured at 96 hrs post fertilization by inverted microscopic analysis; type: organism-based, Danio rerio; settings: read-out: Activity
[45] = test system: Trichophyton mentagrophytes; assay: Antifungal activity against Trichophyton mentagrophytes DMT4 by broth dilution method; type: functional
Candida albicans [46] = assay: Antifungal activity against Candida albicans CA5 by broth dilution method; type: functional
[47] = Toxicity against zebrafish embryo assessed as dead embryos at 10 ug/ml measured at 96 hrs post fertilization by inverted microscopic analysis; type: organism-based, Danio rerio; settings: read-out: Activity
Danio rerio [48] = organism: Danio rerio; assay: Toxicity against zebrafish embryo assessed as teratogenic embryos at 50 ug/ml measured at 96 hrs post fertilization by inverted microscopic analysis; type: organism-based; settings: in vivo
Danio rerio [49] = organism: Danio rerio; assay: Toxicity against zebrafish embryo assessed as teratogenic embryos at 10 ug/ml measured at 96 hrs post fertilization by inverted microscopic analysis; type: organism-based; settings: in vivo
Danio rerio [50] = organism: Danio rerio; assay: Toxicity against zebrafish embryo assessed as effect on notochord at 5 ug/ml measured at 96 hrs post fertilization by inverted microscopic analysis; type: organism-based; settings: in vivo
Danio rerio [51] = organism: Danio rerio; assay: Toxicity against zebrafish embryo assessed as skeletal deformities at 2.5 ug/ml measured at 96 hrs post fertilization by inverted microscopic analysis; type: organism-based; settings: in vivo
Danio rerio [52] = organism: Danio rerio; assay: Toxicity against zebrafish embryo assessed as effect on blood circulation at 2.5 ug/ml measured at 96 hrs post fertilization by inverted microscopic analysis; type: organism-based; settings: in vivo

C[C@@H](c1ncncc1F)[C@](O)(Cn1cncn1)c1ccc(F)cc1F [VORICONAZOLE]
MBEC (Pichia kudriavzevii [1]): 250 µg/mL | MIC (Microsporum canis): 0.5 µg/mL (≈ 1.43 µM) | Activity (Danio rerio [2]): 0% | Activity (Danio rerio [3]): 0% | mortality at 96 h, 50 ug/ml [4]: 100% | MIC (Aspergillus fumigatus): 0.06 µg/mL (≈ 0.172 µM) | MBEC (Candida parapsilosis [5]): inactive | MIC (Pichia kudriavzevii [6]): 0.06 µg/mL (≈ 0.172 µM) | Activity (Candida albicans [7]): Active | Activity (Candida albicans [8]): Active | Activity (Danio rerio [9]): 100% | MIC (Candida albicans [10]): 0.5 µg/mL (≈ 1.43 µM) | Activity (Danio rerio [11]): 0% | Activity (Candida albicans [12]): inactive | MIC (Fusarium oxysporum): inactive | Activity (Danio rerio [13]): 100% | Activity (Danio rerio [14]): 100% | mortality at 96 h, 25 ug/ml [15]: 100% | Activity (Danio rerio [16]): 100% | Activity (Danio rerio [17]): 100% | Activity (Danio rerio [18]): 0% | Activity (Danio rerio [19]): 100% | Activity (Danio rerio [20]): 100% | Activity (Danio rerio [21]): 100% | Activity (Danio rerio [22]): 0% | LC50 at 96 h [23]: 3.1 µg/mL (≈ 8.87 µM) | Activity (Danio rerio [24]): 20% | Activity (Danio rerio [25]): 100% | Activity [26]: 12% | Activity (Danio rerio [27]): 100% | Activity (Danio rerio [28]): 0% | Activity (Danio rerio [29]): 63.33% | Activity (Danio rerio [30]): 0% | Activity (Danio rerio [31]): 100% | Activity (Danio rerio [32]): 0% | mortality at 96 h, 5 ug/ml [33]: 80% | Activity (Danio rerio [34]): 0% | Activity (Danio rerio [35]): 0% | MIC (Candida parapsilosis [36]): inactive | MBEC (Candida albicans [37]): 250 µg/mL | Activity (Danio rerio [38]): 0% | Activity (Danio rerio [39]): 100% | Activity (Danio rerio [40]): 100% | Activity (Danio rerio [41]): 0% | Activity (Danio rerio [42]): 0% | Activity (Danio rerio [43]): 100% | mortality at 96 h, 2.5 ug/ml [44]: 36.7% | MIC [45]: 0.25 µg/mL (≈ 0.716 µM) | MIC (Candida albicans [46]): inactive | mortality at 96 h, 10 ug/ml [47]: 100% | Activity (Danio rerio [48]): 0% | Activity (Danio rerio [49]): 0% | Activity (Danio rerio [50]): 0% | Activity (Danio rerio [51]): 94.74% | Activity (Danio rerio [52]): 0%
